{"source": "patent US6410545B1", "about": "“Lipid lowering quinazoline dietary supplement composition” (Parker Hughes Institute, priority 1998, dated 2002)", "key": {"C57B⅙ mice [1]": {"system": "C57B⅙ mice", "assay": "In vivo hepatic VLDL-TG production using Triton WR1339 in C57B⅙ mice", "protocol": "(§1) C57B⅙ and apoE-deficient mice were treated with intraperitoneal injections of 50 μl vehicle or 40 mg/kg WHI-P164 in 50 μl vehicle for 7 consecutive days, followed by a 36 hour fast to shut down intestinal chylomicron synthesis. […] Blood samples were taken at 0 and 4 hours after Triton WR1339 injection and plasma TG levels were measured enzymatically using a commercially available enzymatic kit (Sigma Chemical Co.). Alternatively, food was returned to the mice after a 36 hour fast and blood samples were collected at 0, 1, 3, 6, and 9 hours after returning the food. Accumulation of chylomicron-TG was determined as accumulation of plasma TG.\nTo determine if WHI-P164 prevent hepatic TG accumulation by relieving 9 block in VLDL-TG secretion or by inhibiting upstream TG synthesis, in vivo hepatic VLDL-TG synthesis was analyzed. Synthesis was determined by following the accumulation of VLDL-TG after shutting down VLDL catabolism with Triton WR1339 injection and intestinal chylomicron synthesis with a 36 hours fast.\nC57B⅙ and apoE-deficient mice were treated with intra peritoneal injections of vehicle or 40 mg/kg WHI-P164 (in 50 μl vehicle) for 7 consecutive days, followed by a 36 hour fast to shut down intestinal chylomicron synthesis. […] Blood samples (50 μl) were taken at 0 and 4 hours after Triton WR1339 injection and plasma TG was measured enzymatically using a commercially available enzymatic kit (Sigma Chemical Co.), as previously reported (Kuipers, supra)."}, "C57B⅙ mice [2]": {"system": "C57B⅙ mice", "assay": "Postprandial triglyceride accumulation after 36 hour fast", "type": "in vivo", "settings": "40 mg/kg/day for 7 days", "protocol": "FIG. 5 is a graph showing inhibition of postprandial triglyceride accumulation by WHI-P164 treatment. C57B⅙ mice were treated with WHI-P164 at 40 mg/kg/day for 7 days, and fasted 36 hours with continuing treatment. […].\nas §1\nInhibition reached statistical significance at 6 hours in vehicle treated mice having a plasma TG level of 272±25 mg/dL, n=5, as compared to a plasma TG level of 155±32 mg/dL, n=5, p=0.004 in WHI-P164 treated mice."}, "apo e−/− mice": {"system": "apo e−/− mice", "assay": "Hepatic and plasma lipids (Oil Red O staining, tissue lipid extraction) in apo e−/− mice on Western diet", "type": "in vivo", "settings": "40 mg/kg/day for 1 week", "protocol": "Serum total cholesterol was measured enzymatically using the cholesterol kit from Sigma Chemical Co. (St. Louis, Mo., USA). For liver tissue lipid measurements, lipids were extracted from homogenized hepatic tissues using the method of Bligh and Dyer (Bligh, et al., Can. J. Biochem. Phys. 1959, 37:911-917). One gram of liver tissue was homogenized in 1 ml of distilled water and extracted with 4 ml of chloroform/methanol (1:1, v/v). The chloroform phase containing the lipids was evaporated under a stream of nitrogen, the lipids dissolved in 100 μL of isopropanol, and subjected to cholesterol determination as described above. Triglyceride (TG) contents were determined using the TG kit from Sigma Chemical Co.\n(§2) At the end of the experiment, the animals were sacrificed and the harvested tissues were fixed in 10% phosphate buffered formalin overnight, embedded, sectioned, and stained by hematoxylin and eosin (H&E). The stained sections were examined for pathological changes. For Oil Red O staining, the liver was excised and snap frozen in liquid nitrogen. Five micrometer thick sections were obtained using the LeicaCM1800 cryostat (Heerbrugg, Switzerland), stained in 0.5% Oil Red O in propylene glycol for 1 hour, destained in 85% propylene glycol for 1 minute, rinsed twice in distilled water, counterstained in Mayer's hematoxylin for a few seconds, rinsed twice in distilled water, and mounted in Crystalmount (Biomedia Corp., Foster City, Calif.). The Oil Red O stainable material at 400 X magnification was quantitated using the ImagePro plus program (Media Cybernetics, Silver Spring, Md., USA) in conjunction with a 3CCD camera (DAGE-MTI Inc., Michigan City, USA).\napo e^−/− mice accumulate large amounts of TG-rich lipid droplets in their livers, due a blocked VLDL-TG secretion (Kuipers et al., 1997, J. Clin. Invest. 100:2915-2922). […] When tissue lipids were measured, there was a 22% reduction in hepatic cholesterol 39% reduction in hepatic triglycerides."}, "C57B⅙ mice [3]": {"system": "C57B⅙ mice", "assay": "Blood chemistry, weight and histopathology of treated C57B⅙ mice", "type": "in vivo", "protocol": "[…] A range of doses was administered. Control animals received vehicle alone. The effect of quinazoline derivatives on total cholesterol, LDL, HDL, liver enzymes, and glucose was analyzed. The mice tissues were also examined histologically.\nSerum levels alanine aminotransferase (ALT), alkaline phosphatase (ALP), lactate dehydrogenase (LDH), blood urea nitrogen (BUN), creatinine, creatinine phosphokinase (CPK), and glucose were determined by using a Synchron CX5 Clinical System (Beckman Instruments, Inc., Fullerton, Calif.) following manufacturer's instructions. For the glucose tolerance test, blood glucose levels were determined using the portable One Touch Profile glucose meter (Lifescan, Milpitas, Calif., USA).\nas §2"}, "[4]": {"settings": "C57B⅙ mice, indicated dose levels"}}, "note": "“Also recorded” adds a separate entry of the source."}
{"compound": "COc1cc2ncnc(C(=O)c3cccc(Br)c3)c2cc1OC", "note": "[WHI-P164, 4-(3′-bromobenzoyl)-6,7-dimethoxyquinazoline]", "values": [{"measurement": "Accumulation of VLDL-TG after Triton WR1339 treatment", "setting": "C57B⅙ mice [1]; C57B⅙ mice, 40 mg/kg, versus vehicle", "value": "significantly less accumulation of VLDL-TG than vehicle-treated control mice"}, {"measurement": "Triglyceride, Pre-Triton WR 1339", "setting": "C57B⅙ mice [1]; apo e+/+ (C57B1/6), 40 mg/kg i.p. 7 days, 36 hour fast", "value": "124 ± 12 (n = 5) mg/dL"}, {"measurement": "Triglyceride, Post-Triton WR 1339", "setting": "C57B⅙ mice [1]; apo e+/+ (C57B1/6), 40 mg/kg i.p. 7 days, 36 hour fast, 4 hours after Triton WR1339", "value": "1031 ± 95 (n = 8) mg/dL"}, {"measurement": "Plasma TG level", "setting": "C57B⅙ mice [2]; 6 hours after returning food to 36 hours fasted mice", "value": "155 ± 32", "unit": "mg/dL"}, {"measurement": "Postprandial triglyceride accumulation", "setting": "C57B⅙ mice [2]; C57B⅙ mice, fasted 36 hours, versus vehicle, 40 mg/kg/day", "value": "much reduced postprandial triglyceride accumulation; also recorded: Postprandial accumulation was inhibited"}, {"measurement": "Oil Red O stainable lipid material in liver", "setting": "apo e−/− mice", "value": "658±256", "unit": "red pixels/field"}, {"measurement": "hepatic cholesterol", "setting": "apo e−/− mice", "value": "51.4 ± 4.4", "unit": "mg/g wet wt"}, {"measurement": "hepatic triglycerides", "setting": "apo e−/− mice", "value": "211.6 ± 27", "unit": "mg/g wet wt"}, {"measurement": "plasma FFA", "setting": "apo e−/− mice", "value": "3.6 ± 0.3", "unit": "mM"}, {"measurement": "plasma TG", "setting": "apo e−/− mice", "value": "165 ± 19", "unit": "mg/dL"}, {"measurement": "Reduction in hepatic cholesterol", "setting": "apo e−/− mice; versus vehicle", "value": 22, "unit": "%"}, {"measurement": "Reduction in hepatic triglycerides", "setting": "apo e−/− mice; versus vehicle", "value": 39, "unit": "%"}, {"measurement": "Reduction of liver lipid material (image analysis)", "setting": "apo e−/− mice; versus vehicle", "value": 75, "unit": "%"}, {"measurement": "Histopathologic examination of tissues", "setting": "C57B⅙ mice [3]; [4]", "value": "did not reveal any drug related toxic lesions"}, {"measurement": "Liver enzymes (ALT, ALP, LDH) and BUN/Creatinine", "setting": "C57B⅙ mice [3]; [4]", "value": "remained within normal limits"}, {"measurement": "Clinical or laboratory signs of toxicity", "setting": "C57B⅙ mice [3]; C57B⅙ mice, indicated dose levels (1.6-16 mg/kg/day)", "value": "not associated with any obvious clinical or laboratory signs of toxicity"}, {"measurement": "ALP", "setting": "C57B⅙ mice [3]; treated C57B1/6 mice, 1 week", "value": "101 ± 3", "unit": "IU/L"}, {"measurement": "BUN", "setting": "C57B⅙ mice [3]; treated C57B1/6 mice, 1 week", "value": "25.4 ± 2.0", "unit": "mg/dL"}, {"measurement": "Glucose", "setting": "C57B⅙ mice [3]; treated C57B1/6 mice, 1 week", "value": "201 ± 18", "unit": "mg/dL"}, {"measurement": "LD-L", "setting": "C57B⅙ mice [3]; treated C57B1/6 mice, 1 week", "value": "1402 ± 144", "unit": "IU/L"}, {"measurement": "Net weight change", "setting": "C57B⅙ mice [3]; treated C57B1/6 mice, 1 week", "value": "-0.26 ± 0.22", "unit": "g"}, {"measurement": "ALP", "setting": "C57B⅙ mice [3]; treated C57B1/6 mice, 2 weeks", "value": "94 ± 10", "unit": "IU/L"}, {"measurement": "ALT", "setting": "C57B⅙ mice [3]; treated C57B1/6 mice, 2 weeks", "value": "148 ± 54", "unit": "IU/L"}, {"measurement": "LD-L", "setting": "C57B⅙ mice [3]; treated C57B1/6 mice, 2 weeks", "value": "459 ± 83", "unit": "IU/L"}, {"measurement": "Net weight change", "setting": "C57B⅙ mice [3]; treated C57B1/6 mice, 2 weeks", "value": "1.88 ± 0.42", "unit": "g"}]}
